Measured values: article PMC10178848, “Modulating fast skeletal muscle contraction protects skeletal muscle in animal models of Duchenne muscular dystrophy” (The Journal of Clinical Investigation, 2023)
Like-named read-outs stand apart in the source and are kept apart here.

Tested on: GRMD plasma proteins
Assay type: in vivo, dog
[1] = Post-Treatment to GRMD baseline, Increased in GRMD

## O=c1ccc(-c2cnc(OCC(F)(F)F)nc2)nn1Cc1cncc(F)c1 [EDG-5506]
[1]
  Change from GRMD Baseline (fraction): Tyrosine-protein phosphatase non-receptor type 11 (PTPN11): -0.1671 fraction
  Change from GRMD Baseline (fraction): UMP-CMP kinase (CMPK1): 0.3595 fraction
  Change from GRMD Baseline (fraction): Ubiquitin carboxyl-terminal hydrolase 25 (USP25): 0.0097 fraction
  Change from GRMD Baseline (fraction): Ubiquitin carboxyl-terminal hydrolase isozyme L1 (UCHL1): 0.0043 fraction
  Change from GRMD Baseline (fraction): Ubiquitin-fold modifier 1 (UFM1): -0.1676 fraction
  Change from GRMD Baseline (fraction): Vascular cell adhesion protein 1 (VCAM1): -0.0398 fraction
  Change from GRMD Baseline (fraction): Vitamin K-dependent protein C (PROC): 0.0209 fraction
  Change from GRMD Baseline (fraction): Vitronectin (VTN): -0.1254 fraction
  Change from GRMD Baseline (fraction): cAMP-dependent protein kinase catalytic subunit alpha (PRKACA): -0.3909 fraction
  Change from GRMD Baseline (fraction): dCTP pyrophosphatase 1 (DCTPP1): -0.286 fraction
  Chitotriosidase-1 (CHIT1): Change from GRMD Baseline (fraction): 0.0322 fraction
  Chorionic somatomammotropin hormone (CSH1 CSH2): Change from GRMD Baseline (fraction): -0.0339 fraction
  Chromobox protein homolog 5 (CBX5): Change from GRMD Baseline (fraction): 0.2228 fraction
  Coagulation Factor X (F10): Change from GRMD Baseline (fraction): 0.1794 fraction
  Coagulation factor IX (F9): Change from GRMD Baseline (fraction): 0.0608 fraction
  Complement component 1 Q subcomponent-binding protein, mitochondrial (C1QBP): Change from GRMD Baseline (fraction): 0.0901 fraction
  Connective tissue growth factor (CTGF): Change from GRMD Baseline (fraction): -0.0093 fraction
  Cyclin-dependent kinase 1:G2/mitotic-specific cyclin-B1 complex (CDC2 CCNB1): Change from GRMD Baseline (fraction): 0.0208 fraction
  Cyclin-dependent kinase 5:Cyclin-dependent kinase 5 activator 1 complex (CDK5 CDK5R1): Change from GRMD Baseline (fraction): 0.0687 fraction
  Cytokine receptor-like factor 1:Cardiotrophin-like cytokine factor 1 Complex (CRLF1 CLCF1): Change from GRMD Baseline (fraction): 0.0138 fraction
  Dual 3',5'-cyclic-AMP and -GMP phosphodiesterase 11A (PDE11A): Change from GRMD Baseline (fraction): 0.0321 fraction
  Ectodysplasin-A, secreted form (EDA): Change from GRMD Baseline (fraction): 0.0092 fraction
  Endothelial cell-selective adhesion molecule (ESAM): Change from GRMD Baseline (fraction): -0.0069 fraction
  Endothelial monocyte-activating polypeptide 2 (AIMP1): Change from GRMD Baseline (fraction): -0.0021 fraction
  Extracellular superoxide dismutase [Cu-Zn] (SOD3): Change from GRMD Baseline (fraction): 0.0677 fraction
  Ficolin-2 (FCN2): Change from GRMD Baseline (fraction): 0.0082 fraction
  Fms-related tyrosine kinase 3 ligand (FLT3LG): Change from GRMD Baseline (fraction): 0.0399 fraction
  Galactoside 3(4)-L-fucosyltransferase (FUT3): Change from GRMD Baseline (fraction): 0.1128 fraction
  Galectin-10 (CLC): Change from GRMD Baseline (fraction): 0.0216 fraction
  Glial fibrillary acidic protein (GFAP): Change from GRMD Baseline (fraction): -0.0254 fraction
  Glycylpeptide N-tetradecanoyltransferase 1 (NMT1): Change from GRMD Baseline (fraction): 0.0839 fraction
  Group 10 secretory phospholipase A2 (PLA2G10): Change from GRMD Baseline (fraction): 0.0518 fraction
  Growth hormone receptor (GHR): Change from GRMD Baseline (fraction): 0.0479 fraction
  Growth-regulated alpha protein (CXCL1): Change from GRMD Baseline (fraction): -0.0445 fraction
  Growth/differentiation factor 15 (GDF15): Change from GRMD Baseline (fraction): -0.0019 fraction
  Hepatocyte growth factor (HGF): Change from GRMD Baseline (fraction): 0.0007 fraction
  Hepcidin (HAMP): Change from GRMD Baseline (fraction): -0.0103 fraction
  Immunoglobulin M (IGHM IGJ IGK@ IGL@): Change from GRMD Baseline (fraction): 0.0023 fraction
  Importin subunit alpha-1 (KPNA2): Change from GRMD Baseline (fraction): -0.1696 fraction
  Induced myeloid leukemia cell differentiation protein Mcl-1 (MCL1): Change from GRMD Baseline (fraction): -0.1236 fraction
  Inorganic pyrophosphatase (PPA1): Change from GRMD Baseline (fraction): -0.0163 fraction
  Insulin-like growth factor-binding protein 7 (IGFBP7): Change from GRMD Baseline (fraction): 0.064 fraction
  Integrin alpha-IIb: beta-3 complex (ITGA2B ITGB3): Change from GRMD Baseline (fraction): 0.0053 fraction
  Interleukin-4 (IL4): Change from GRMD Baseline (fraction): -0.0251 fraction
  Interleukin-6 receptor subunit beta (IL6ST): Change from GRMD Baseline (fraction): 0.06 fraction
  Interleukin-8 (CXCL8): Change from GRMD Baseline (fraction): -0.0291 fraction
  Interleukin-10 receptor subunit beta (IL10RB): Change from GRMD Baseline (fraction): -0.0324 fraction
  Interleukin-17 receptor C (IL17RC): Change from GRMD Baseline (fraction): -0.0159 fraction
  Interleukin-18 receptor accessory protein (IL18RAP): Change from GRMD Baseline (fraction): -0.0292 fraction
  Interleukin-27 (IL27 EBI3): Change from GRMD Baseline (fraction): -0.0149 fraction
  Interleukin-36 beta (IL36B): Change from GRMD Baseline (fraction): 0.0098 fraction
  Killer cell immunoglobulin-like receptor 3DS1 (KIR3DS1): Change from GRMD Baseline (fraction): 0.1583 fraction
  Killer cell lectin-like receptor subfamily F member 1 (KLRF1): Change from GRMD Baseline (fraction): 0.2014 fraction
  Lamin-B1 (LMNB1): Change from GRMD Baseline (fraction): -0.0238 fraction
  Laminin (LAMA1 LAMB1 LAMC1): Change from GRMD Baseline (fraction): 0.0548 fraction
  Low-density lipoprotein receptor-related protein 1B (LRP1B): Change from GRMD Baseline (fraction): -0.0345 fraction
  Macrophage-stimulating protein receptor (MST1R): Change from GRMD Baseline (fraction): 0.0197 fraction
  Matrilin-3 (MATN3): Change from GRMD Baseline (fraction): -0.0333 fraction
  Matrilysin (MMP7): Change from GRMD Baseline (fraction): -0.0041 fraction
  N-terminal pro-BNP (NPPB): Change from GRMD Baseline (fraction): -0.0202 fraction
  NKG2D ligand 3 (ULBP3): Change from GRMD Baseline (fraction): 0.0123 fraction
  Neural cell adhesion molecule L1-like protein (CHL1): Change from GRMD Baseline (fraction): -0.0412 fraction
  Neurexophilin-1 (NXPH1): Change from GRMD Baseline (fraction): 0.3842 fraction
  OX-2 membrane glycoprotein (CD200): Change from GRMD Baseline (fraction): 0.1164 fraction
  Persephin (PSPN): Change from GRMD Baseline (fraction): -0.0043 fraction
  Phosphatidylinositol 4,5-bisphosphate 3-kinase catalytic subunit gamma isoform (PIK3CG): Change from GRMD Baseline (fraction): 0.0292 fraction
  Pituitary adenylate cyclase-activating polypeptide 27 (ADCYAP1): Change from GRMD Baseline (fraction): 0.0483 fraction
  Platelet factor 4 (PF4): Change from GRMD Baseline (fraction): 0.0577 fraction
  Platelet glycoprotein VI (GP6): Change from GRMD Baseline (fraction): 0.0535 fraction
  Prolactin (PRL): Change from GRMD Baseline (fraction): -0.0256 fraction
  Prolactin receptor (PRLR): Change from GRMD Baseline (fraction): 0.085 fraction
  Proteasome subunit alpha type-6 (PSMA6): Change from GRMD Baseline (fraction): 0.0724 fraction
  Protein E7_HPV18 (Human-virus): Change from GRMD Baseline (fraction): 0.0128 fraction
  Proto-oncogene tyrosine-protein kinase receptor Ret (RET): Change from GRMD Baseline (fraction): 0.0043 fraction
  RNA-binding protein 39 (RBM39): Change from GRMD Baseline (fraction): -0.1347 fraction
  Ras GTPase-activating protein 1 (RASA1): Change from GRMD Baseline (fraction): -0.0705 fraction
  Ribosome maturation protein SBDS (SBDS): Change from GRMD Baseline (fraction): 0.0714 fraction
  SPARC-related modular calcium-binding protein 1 (SMOC1): Change from GRMD Baseline (fraction): -0.0726 fraction
  Secreted and transmembrane protein 1 (SECTM1): Change from GRMD Baseline (fraction): -0.1238 fraction
  Serine/threonine-protein kinase PAK 3 (PAK3): Change from GRMD Baseline (fraction): 0.077 fraction
  Serine/threonine-protein kinase PAK 7 (PAK7): Change from GRMD Baseline (fraction): -0.0176 fraction
  Serine/threonine-protein kinase pim-1 (PIM1): Change from GRMD Baseline (fraction): 0.0551 fraction
  Serum amyloid A-1 protein (SAA1): Change from GRMD Baseline (fraction): -0.1642 fraction
  Sialic acid-binding Ig-like lectin 7 (SIGLEC7): Change from GRMD Baseline (fraction): -0.0123 fraction
  Small ubiquitin-related modifier 3 (SUMO3): Change from GRMD Baseline (fraction): -0.0342 fraction
  Stromelysin-1 (MMP3): Change from GRMD Baseline (fraction): 0.0381 fraction
  Stromelysin-2 (MMP10): Change from GRMD Baseline (fraction): -0.0469 fraction
  Synaptosomal-associated protein 25 (SNAP25): Change from GRMD Baseline (fraction): 0.0227 fraction
  T-cell surface glycoprotein CD4 (CD4): Change from GRMD Baseline (fraction): 0.004 fraction
  T-lymphocyte activation antigen CD86 (CD86): Change from GRMD Baseline (fraction): 0.0642 fraction
  TATA-box-binding protein (TBP): Change from GRMD Baseline (fraction): -0.0819 fraction
  Thyroxine-binding globulin (SERPINA7): Change from GRMD Baseline (fraction): -0.0761 fraction
  Transcription factor IIIB 90 kDa subunit (BRF1): Change from GRMD Baseline (fraction): 0.0702 fraction
  Tumor necrosis factor ligand superfamily member 18 (TNFSF18): Change from GRMD Baseline (fraction): 0.0235 fraction
  Tumor necrosis factor receptor superfamily member 13B (TNFRSF13B): Change from GRMD Baseline (fraction): -0.0295 fraction
  Tumor necrosis factor receptor superfamily member 13C (TNFRSF13C): Change from GRMD Baseline (fraction): -0.0266 fraction
  Tumor-associated calcium signal transducer 2 (TACSTD2): Change from GRMD Baseline (fraction): -0.0008 fraction
  Ubiquitin-conjugating enzyme E2 G2 (UBE2G2): Change from GRMD Baseline (fraction): -0.0144 fraction
  WNT1-inducible-signaling pathway protein 1 (WISP1): Change from GRMD Baseline (fraction): 0.0281 fraction
  WNT1-inducible-signaling pathway protein 3 (WISP3): Change from GRMD Baseline (fraction): 0.0371 fraction
  alpha-2-macroglobulin receptor-associated protein (LRPAP1): Change from GRMD Baseline (fraction): -0.0289 fraction
  cGMP-dependent 3',5'-cyclic phosphodiesterase (PDE2A): Change from GRMD Baseline (fraction): 0.1206 fraction
Protein deglycase DJ-1 (PARK7), EDG-5506 treatment to GRMD baseline
  Change from GRMD Baseline (fraction): 0.1853 fraction
Protein deglycase DJ-1 (PARK7), Post-Treatment to GRMD baseline
  Change from GRMD Baseline (fraction): -0.0618 fraction
Proto-oncogene vav (VAV1), EDG-5506 treatment to GRMD baseline
  Change from GRMD Baseline (fraction): 0.0609 fraction
Proto-oncogene vav (VAV1), Post-Treatment to GRMD baseline
  Change from GRMD Baseline (fraction): 0.2228 fraction
SH2 domain-containing protein 1A (SH2D1A), EDG-5506 treatment to GRMD baseline
  Change from GRMD Baseline (fraction): 0.0272 fraction
SH2 domain-containing protein 1A (SH2D1A), Post-Treatment to GRMD baseline
  Change from GRMD Baseline (fraction): 0.0814 fraction
Serine/threonine-protein kinase TBK1 (TBK1), EDG-5506 treatment to GRMD baseline
  Change from GRMD Baseline (fraction): 0.0144 fraction
Serine/threonine-protein kinase TBK1 (TBK1), Post-Treatment to GRMD baseline
  Change from GRMD Baseline (fraction): 0.0415 fraction
Sialic acid-binding Ig-like lectin 14 (SIGLEC14), EDG-5506 treatment to GRMD baseline
  Change from GRMD Baseline (fraction): 0.0643 fraction
Sialic acid-binding Ig-like lectin 14 (SIGLEC14), Post-Treatment to GRMD baseline
  Change from GRMD Baseline (fraction): -0.0249 fraction
Sorting nexin-4 (SNX4), EDG-5506 treatment to GRMD baseline
  Change from GRMD Baseline (fraction): -0.0709 fraction
Sorting nexin-4 (SNX4), Post-Treatment to GRMD baseline
  Change from GRMD Baseline (fraction): 0.088 fraction
Thrombin (F2), EDG-5506 treatment to GRMD baseline
  Change from GRMD Baseline (fraction): 0.2436 fraction
Thrombin (F2), Post-Treatment to GRMD baseline
  Change from GRMD Baseline (fraction): 0.0387 fraction
Transgelin-2 (TAGLN2), EDG-5506 treatment to GRMD baseline
  Change from GRMD Baseline (fraction): 0.1205 fraction
Transgelin-2 (TAGLN2), Post-Treatment to GRMD baseline
  Change from GRMD Baseline (fraction): -0.0633 fraction
WAP, kazal, immunoglobulin, kunitz and NTR domain-containing protein 1 (WFIKKN1), EDG-5506 treatment to GRMD baseline
  Change from GRMD Baseline (fraction): 0.1609 fraction
WAP, kazal, immunoglobulin, kunitz and NTR domain-containing protein 1 (WFIKKN1), Post-Treatment to GRMD baseline
  Change from GRMD Baseline (fraction): -0.0946 fraction
